Reference: patent publication US20090045121A1, “Dialysis Solution Preparation Water, Dialysis Solution Using Such Water, Method of Producing Dialysis Solution, and Dialysis Equipment” (priority 2006, published 2009)

Test: Oxidation reducing capability for glyoxal by hydrogen peroxide-luminol chemiluminescence
Settings: added to 1.0 mM, 10.0 mM and 100.0 mM glyoxal; compared to Comparative Example 1; n=3
Experimental: At the elapse of 30 seconds, 1000 μl of hydrogen peroxide was further mixed therein. Then, the chemiluminescence (CL) count (number of photons) was identified continuously for 150 seconds. Measurement was initiated when the CL counts came to 200 s per second (total time: 180 seconds). For the confirmation and measurement of the CL counts, a CL analyzer (product of TOHOKU ELECTRONIC INDUSTRIAL CO., LTD.) was employed. Using the dialysis solution preparation water of Example 1 and Comparative Example 1 obtained in Experiment 1, an evaluation experiment on the oxidation reducing capability for glyoxal was conducted. An evaluation experiment (n=3) employing hydrogen peroxide-luminol chemiluminescence similar to that of Experiment 1 was carried out, provided that the test liquid used was prepared by adding 45 μl of each dialysis solution preparation water into 45 μl of glyoxal with the concentration of 1.0 mM, 10.0 mM and 100.0 mM such that the total amount of the test liquid was 90 μl. For a reference example, a similar experiment (n=3) was carried out employing ascorbic acid (well known as a free radical scavenge substance). The test liquid was prepared such that the ascorbic acid was added to attain 1.0 μg/ml for […].

O=C1O[C@H]([C@@H](O)CO)C(O)=C1O [ascorbic acid]
CL total count: reduced significantly
